Test results as given in PubChem BioAssay (NCI).
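Here, GI50 denotes the concentration required for 50% inhibition of growth. At the TGI there is no net growth.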

Legend:
Assay in all cases: NCI-60 cell line screen, 384-well format
[1] = tested on: 786-0 renal
[2] = tested on: A498 renal
[3] = tested on: A549 NSCLC
[4] = tested on: ACHN renal
[5] = tested on: BT-549 breast
[6] = tested on: CAKI-1 renal
[7] = tested on: CCRF-CEM leukemia
[8] = tested on: COLO 205 colon
[9] = tested on: DU-145 prostate
[10] = tested on: HCC-2998 colon
[11] = tested on: HCT-116 colon
[12] = tested on: HCT-15 colon
[13] = tested on: HL-60(TB) leukemia
[14] = tested on: HOP-62 NSCLC
[15] = tested on: HOP-92 NSCLC
[16] = tested on: HT29 colon
[17] = tested on: IGROV1 ovarian
[18] = tested on: K-562 leukemia
[19] = tested on: KM12 colon
[20] = tested on: LOX IMVI melanoma
[21] = tested on: M14 melanoma
[22] = tested on: MCF7 breast
[23] = tested on: MDA-MB-468 breast
[24] = tested on: NCI-H226 lung
[25] = tested on: NCI-H23 lung
[26] = tested on: NCI-H460 NSCLC
[27] = tested on: NCI-H522 lung
[28] = tested on: NCI/ADR-RES ovarian
[29] = tested on: OVCAR-3 ovarian
[30] = tested on: OVCAR-8 ovarian
[31] = tested on: RPMI-8226 leukemia
[32] = tested on: SF-268 CNS
[33] = tested on: SF-295 CNS
[34] = tested on: SF-539 CNS
[35] = tested on: SK-MEL-2 melanoma
[36] = tested on: SK-MEL-28 melanoma
[37] = tested on: SK-MEL-5 melanoma
[38] = tested on: SK-OV-3 ovarian
[39] = tested on: SN12C renal
[40] = tested on: SNB-19 CNS
[41] = tested on: SNB-75 CNS
[42] = tested on: SR leukemia
[43] = tested on: SW-620 colon
[44] = tested on: U251 glioblastoma
[45] = tested on: UACC-257 melanoma
[46] = tested on: UACC-62 melanoma
[47] = tested on: UO-31 renal
[48] = tested on: EKVX NSCLC
[49] = tested on: HS 578T breast
[50] = tested on: MALME-3M melanoma
[51] = tested on: MDA-MB-231 breast
[52] = tested on: MDA-MB-435 melanoma
[53] = tested on: MOLT-4 leukemia
[54] = tested on: NCI-H322M lung
[55] = tested on: OVCAR-4 ovarian
[56] = tested on: OVCAR-5 ovarian
[57] = tested on: PC-3 prostate
[58] = tested on: RXF 393 renal
[59] = tested on: T-47D breast
[60] = tested on: TK-10 renal

SMILES: Nc1ccn(C2OC(CO)C(O)C2O)c(=O)n1 (stereo unspecified)
- GI50 [1]: 218 nM
- GI50 [2]: 270 nM
- GI50 [3]: 75.1 nM
- GI50 [4]: 196 nM
- TGI [4]: 1110 nM
- GI50 [5]: 602 nM
- GI50 [6]: 446 nM
- GI50 [7]: < 13.7 nM
- TGI [7]: 20.5 nM
- GI50 [8]: 58.8 nM
- TGI [8]: 2640 nM
- GI50 [9]: 501 nM
- TGI [9]: > 30800 nM
- GI50 [10]: 84.7 nM
- GI50 [11]: 69.5 nM
- GI50 [12]: 328 nM
- GI50 [13]: 182 nM
- TGI [13]: 759 nM
- GI50 [14]: 63.9 nM
- TGI [14]: 706 nM
- GI50 [15]: 10600 nM
- GI50 [16]: 1480 nM
- GI50 [17]: 2390 nM
- GI50 [18]: 155 nM
- GI50 [19]: 6670 nM
- GI50 [20]: 286 nM
- TGI [20]: 9950 nM
- GI50 [21]: 148 nM
- TGI [21]: 1950 nM
- GI50 [22]: 99.1 nM
- GI50 [23]: 1140 nM
- GI50 [24]: 1740 nM
- GI50 [25]: 106 nM
- TGI [25]: 1010 nM
- GI50 [26]: 34.3 nM
- TGI [26]: 366 nM
- GI50 [27]: 85.8 nM
- GI50 [28]: 446 nM
- GI50 [29]: 6700 nM
- GI50 [30]: 102 nM
- GI50 [31]: 3490 nM
- GI50 [32]: 1030 nM
- GI50 [33]: 2140 nM
- TGI [33]: 12000 nM
- GI50 [34]: 1800 nM
- TGI [34]: > 95600 nM
- GI50 [35]: > 21400 nM
- GI50 [36]: 171 nM
- GI50 [37]: 249 nM
- TGI [37]: 790 nM
- GI50 [38]: 1890 nM
- GI50 [39]: 1240 nM
- GI50 [40]: 738 nM
- TGI [40]: > 27200 nM
- GI50 [41]: 8640 nM
- GI50 [42]: 103 nM
- TGI [42]: 235 nM
- GI50 [43]: 581 nM
- GI50 [44]: 1060 nM
- GI50 [45]: 2230 nM
- TGI [45]: > 42500 nM
- GI50 [46]: 732 nM
- GI50 [47]: 406 nM

SMILES: CN(C)C/C=C/C(=O)Nc1cc2c(Nc3ccc(F)c(Cl)c3)ncnc2cc1O[C@H]1CCOC1
- GI50 [1]: 763 nM
- TGI [1]: 2190 nM
- GI50 [2]: 126 nM
- TGI [2]: 1540 nM
- GI50 [3]: 436 nM
- TGI [3]: 2330 nM
- GI50 [4]: < 10 nM
- TGI [4]: 1420 nM
- GI50 [5]: 617 nM
- TGI [5]: 1920 nM
- GI50 [6]: 138 nM
- TGI [6]: 1570 nM
- GI50 [8]: 2080 nM
- TGI [8]: 10300 nM
- GI50 [9]: 383 nM
- TGI [9]: 3610 nM
- GI50 [48]: < 10 nM
- TGI [48]: 2160 nM
- GI50 [10]: 1340 nM
- TGI [10]: 2810 nM
- GI50 [11]: 551 nM
- TGI [11]: 1950 nM
- GI50 [12]: 627 nM
- TGI [12]: 2000 nM
- GI50 [13]: 340 nM
- TGI [13]: 1300 nM
- GI50 [14]: 1910 nM
- TGI [14]: 5050 nM
- GI50 [15]: 499 nM
- TGI [15]: 2510 nM
- GI50 [49]: 1450 nM
- TGI [49]: 3140 nM
- GI50 [16]: 2000 nM
- TGI [16]: 11400 nM
- GI50 [17]: < 10 nM
- TGI [17]: 1090 nM
- GI50 [19]: 1230 nM
- TGI [19]: 3070 nM
- GI50 [20]: 1050 nM
- TGI [20]: 2240 nM
- GI50 [21]: 1310 nM
- TGI [21]: 2590 nM
- GI50 [50]: 1420 nM
- TGI [50]: 2730 nM
- GI50 [22]: 1220 nM
- TGI [22]: 2780 nM
- GI50 [51]: 386 nM
- TGI [51]: 1870 nM
- GI50 [52]: 2010 nM
- TGI [52]: 9460 nM
- GI50 [23]: < 10 nM
- GI50 [53]: 232 nM
- TGI [53]: 1260 nM
- GI50 [24]: 907 nM
- TGI [24]: 2210 nM
- GI50 [25]: 1320 nM
- TGI [25]: 2780 nM
- GI50 [54]: < 10 nM
- TGI [54]: 13.1 nM
- GI50 [26]: 1790 nM
- TGI [26]: 3800 nM
- GI50 [27]: < 10 nM
- TGI [27]: 34.4 nM
- GI50 [28]: 1400 nM
- TGI [28]: 5410 nM
- GI50 [29]: 79.8 nM
- TGI [29]: 928 nM
- GI50 [55]: 2050 nM
- TGI [55]: 6590 nM
- GI50 [56]: 1050 nM
- TGI [56]: 7640 nM
- GI50 [30]: 1200 nM
- TGI [30]: 2770 nM
- GI50 [57]: 1570 nM
- TGI [57]: 3580 nM
- GI50 [31]: 1280 nM
- TGI [31]: 2550 nM
- GI50 [58]: 226 nM
- TGI [58]: 838 nM
- GI50 [32]: 1390 nM
- TGI [32]: 3910 nM
- GI50 [33]: 3930 nM
- TGI [33]: 14600 nM
- GI50 [34]: 1410 nM
- TGI [34]: 2780 nM
- GI50 [36]: 1990 nM
- TGI [36]: 5180 nM
- GI50 [37]: 1020 nM
- TGI [37]: 2190 nM
- GI50 [38]: 112 nM
- TGI [38]: 8400 nM
- GI50 [39]: 316 nM
- TGI [39]: 6530 nM
- GI50 [40]: 1910 nM
- TGI [40]: 10600 nM
- GI50 [41]: 429 nM
- TGI [41]: 2960 nM
- GI50 [42]: 1210 nM
- TGI [42]: 2450 nM
- GI50 [43]: 1800 nM
- TGI [43]: 5100 nM
- GI50 [59]: 17.1 nM
- TGI [59]: 2540 nM
- GI50 [60]: < 10 nM
- TGI [60]: 11200 nM
- GI50 [44]: 1310 nM
- TGI [44]: 4050 nM
- GI50 [45]: 1330 nM
- TGI [45]: 2620 nM
- GI50 [46]: 1370 nM
- TGI [46]: 2780 nM
- GI50 [47]: 184 nM
- TGI [47]: 10700 nM
